# Experimental data reported in publication PMC10062145 (Journal of Virology, 2023).
# Residues, ends and D or L forms follow the SMILES beside them. *: point of attachment. Cbz = O=C(OCc1ccccc1)*
# Experiments:
# [1] = tested on: β-catenin; assay type: cell-based
# [2] = tested on: PRV; test: microbe, parasite or virus in culture; assay type: cell-based, pseudorabies virus
# [3] = tested on: NDV F48E9; test: microbe, parasite or virus in culture; assay type: cell-based, Newcastle disease virus; details: for IC50: avian paramyxovirus 1, 24 h
# [4] = tested on: IFN-β; assay type: cell-based
# [5] = tested on: NDV Blackbird/China/08(IX); test: microbe, parasite or virus in culture; assay type: cell-based, Newcastle disease virus; details: avian paramyxovirus 1, 24 h, read-out: IC50 Blackbird/China/08(IX)
# [6] = tested on: Wnt/β-catenin pathway; assay type: cell-based
# [7] = tested on: PPRV, CDV, VSV, PRRSV, AIV, PRV; test: organism not typed; assay type: cell-based; details: read-out: IC50 against these viruses (PPRV, CDV, VSV, PRRSV, AIV, PRV)
# [8] = tested on: NP, P protein; assay type: cell-based, Newcastle disease virus
# [9] = tested on: MX1; assay type: cell-based
# [10] = tested on: NDV F48E9; assay type: cell-based, Newcastle disease virus
# [11] = tested on: F48E9 L protein; assay type: cell-based, Newcastle disease virus
# [12] = tested on: GSK-3β; assay type: binding
# [13] = tested on: NDV F48E9; assay type: cell-based, Newcastle disease virus; remark: listed apart in the source
# [14] = tested on: GSK-3β; assay type: binding; remark: listed apart in the source
# [15] = tested on: PPRV; test: microbe, parasite or virus in culture; assay type: cell-based, peste des petits ruminants virus
# [16] = tested on: VSV; test: microbe, parasite or virus in culture; assay type: cell-based, vesicular stomatitis virus
# [17] = tested on: genes downstream of the Wnt/β-catenin pathway; assay type: cell-based
# [18] = target: T1, HSP90β (Gallus gallus, UniProt Q04619); test: Cellular thermal shift assay (CETSA), HSP90β; assay type: binding; details: 200 μM, DF-1 cell lysate
# T1 construct: endogenous in cells; host or cells: DF-1 cell lysate
# T1 sequence (Q04619 whole entry): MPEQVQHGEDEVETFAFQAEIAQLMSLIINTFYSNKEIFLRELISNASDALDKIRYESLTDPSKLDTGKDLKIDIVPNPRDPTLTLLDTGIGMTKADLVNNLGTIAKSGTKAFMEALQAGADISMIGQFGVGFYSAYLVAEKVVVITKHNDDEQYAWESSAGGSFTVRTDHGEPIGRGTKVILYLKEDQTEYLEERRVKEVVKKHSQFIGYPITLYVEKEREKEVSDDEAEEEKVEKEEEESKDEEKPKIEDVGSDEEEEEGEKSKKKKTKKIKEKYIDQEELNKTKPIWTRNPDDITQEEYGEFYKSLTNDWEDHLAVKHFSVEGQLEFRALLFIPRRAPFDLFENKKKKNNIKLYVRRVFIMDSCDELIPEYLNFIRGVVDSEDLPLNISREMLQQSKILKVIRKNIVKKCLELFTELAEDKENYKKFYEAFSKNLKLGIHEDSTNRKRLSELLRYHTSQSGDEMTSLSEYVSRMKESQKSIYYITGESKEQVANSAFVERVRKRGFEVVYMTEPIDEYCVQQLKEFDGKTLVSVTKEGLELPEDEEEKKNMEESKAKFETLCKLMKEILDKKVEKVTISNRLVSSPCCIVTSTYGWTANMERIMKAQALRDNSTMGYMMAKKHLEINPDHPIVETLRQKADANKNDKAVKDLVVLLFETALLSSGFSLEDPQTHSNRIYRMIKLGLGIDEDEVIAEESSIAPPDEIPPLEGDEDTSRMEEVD
# [19] = tested on: OASL; assay type: cell-based
# [20] = tested on: CDV; test: microbe, parasite or virus in culture; assay type: cell-based, canine distemper virus
# [21] = tested on: PRRSV; test: microbe, parasite or virus in culture; assay type: cell-based, porcine reproductive and respiratory syndrome virus
# [22] = in vitro; details: chicken
# [23] = target: T1, HSP90β; test: Drug affinity responsive target stability (DARTS), HSP90β; assay type: binding; details: 200 μM, DF-1 cell lysate, 50 ng of pronase
# [24] = tested on: NDV La sota (II); test: microbe, parasite or virus in culture; assay type: cell-based, Newcastle disease virus; details: avian paramyxovirus 1, 24 h, read-out: IC50 La sota (II)
# [25] = tested on: NDV F48E9; assay type: cell-based, Newcastle disease virus; remark: listed apart in the source
# [26] = tested on: chicken IFN-β promoter; assay type: cell-based
# [27] = tested on: AIV; test: microbe, parasite or virus in culture; assay type: cell-based, avian influenza virus
# [28] = tested on: NDV PPMV-1/SX-01/Ch/15(VI); test: microbe, parasite or virus in culture; assay type: cell-based, Newcastle disease virus; details: avian paramyxovirus 1, 24 h, read-out: IC50 PPMV-1/SX-01/Ch/15(VI)
compound,measurement,setting,value
CC(C)C[C@@H](C=O)NC(=O)[C@H](CC(C)C)NC(=O)[C@H](CC(C)C)NC(=O)OCc1ccccc1 [MG-132] (Cbz-Leu-Leu-Leu-aldehyde),amounts of β-catenin in NDV-infected cells,[1],significantly restored
"COc1ccc2c(c1)[nH]c1c(C)nccc12 [harmine, reference compound]",anti-PRV activity (harmine),[2],excellent
same,effect on NDV proliferation (harmine),[3],no effect
C=CCNC1=C2C[C@@H](C)C[C@H](OC)[C@H](O)[C@@H](C)/C=C(\C)[C@H](OC(N)=O)[C@@H](OC)/C=C\C=C(/C)C(=O)NC(=CC1=O)C2=O [17-AAG],reduction of infectious virus particle production,[3],4.19 Log
COC[C@H]1OC(=O)c2coc3c2[C@@]1(C)C1=C(C3=O)[C@@H]2CCC(=O)[C@@]2(C)C[C@H]1OC(C)=O [wortmannin],amounts of β-catenin in NDV-infected cells,[1],no effect
"[Cl-].[Li+] [LiCl, reference compound]",reduction in infectious virus particle production,[3],2.69 Log
same,expression of IFN-β,[4],enhanced
"CCCCn1c2cc(O)ccc2c2ccnc(C)c21 [compound 11, 9-butyl-harmol]",IC50,[5],630 ± 300 nM
same,reduction of mRNA of PRV,[2],66.83%
same,IC50,"[2]; Suid alphaherpesvirus 1, BHK-21, 24 h, read-out: IC50 PRV",810 ± 110 nM
same,TOPFlash/FOPFlash luciferase activity,[6],significantly activated
same,"inhibitory rate (reduction compared to DMSO-treated cells), primary screening",[3],higher than 99%
same,"reduction in infectious virus particle production, high dose of NDV",[3],3.08 Log
same,reduction of infectious virus particle production,[3],5.26 Log
same,IC50,[3],490 ± 110 nM
same,IC50,[7],380 to 810 nM
same,expression of NP and expression of P,[8],not affected
same,expression of MX1 upon F48E9 infection,[9],3.13 fold
same,entry of NDV,[10],no effect
same,expression of L,[11],significant reduction
same,thermal stability of GSK-3β (CETSA),[12],strongly changed the thermal stability
same,viral inhibition in time-of-addition study,[13],significant viral inhibition
same,proteolysis of GSK-3β by pronase (DARTS),[14],less sensitive to proteolysis
same,inhibitory rate (reduction) against PPRV,[15],higher than 99%
same,reduction of PPRV mRNA,[15],100 fold
same,IC50,"[15]; peste-des-petits-ruminants virus, Vero, 24 h, read-out: IC50 PPRV",380 ± 60 nM
same,reduction in mRNA expression level of VSV,[16],> 80%
same,IC50,"[16]; Vesicular stomatitis virus, BHK-21, 24 h, read-out: IC50 VSV",430 ± 160 nM
same,MYC upregulation (transcriptome),[17],2.1287 fold
same,PPARgamma upregulation (transcriptome),[17],2.7893 fold
same,WISP1 upregulation (transcriptome),[17],5.2201 fold
same,thermal stability of cellular HSP90β (CETSA),[18],increased the thermal stability
same,expression of OASL upon F48E9 infection,[19],2.51 fold
same,inhibitory rate (reduction) against CDV,[20],higher than 99%
same,reduction of CDV mRNA,[20],100 fold
same,IC50,"[20]; canine distemper virus, Vero, 24 h, read-out: IC50 CDV",400 ± 120 nM
same,reduction in mRNA expression level of PRRSV,[21],> 80%
same,IC50,"[21]; Porcine reproductive and respiratory syndrome virus, MARC145, 24 h, read-out: IC50 PRRSV",540 ± 150 nM
same,CC50,[22],> 50000 nM
same,pronase-induced digestion of HSP90β (DARTS),[23],prevented
same,IC50,[24],580 ± 80 nM
same,NDV adsorption,[25],not inhibited
same,expression of IFN-β with NDV infection,[4],1.95 fold
same,expression of IFN-β without NDV infection,[4],3.04 fold
same,IFN-β promoter activity with NDV infection,[26],2.89 fold
same,IFN-β promoter activity without NDV infection,[26],4.90 fold
same,reduction in mRNA expression level of AIV,[27],> 80%
same,IC50,"[27]; unidentified influenza virus, A549, 24 h, read-out: IC50 AIV",530 ± 180 nM
same,IC50,[28],710 ± 260 nM
Cc1cc(/C=C2\SC(=O)N(c3ccccc3)C2=O)c(C)n1-c1cccnc1 [iCRT14],effect on the proliferation of NDV,[3],no effect
"NC(=O)c1ncn([C@@H]2O[C@H](CO)[C@@H](O)[C@H]2O)n1 [Ribavirin, reference compound]",IC50,[5],10400 ± 2850 nM
same,IC50,[3],8620 ± 1440 nM
same,IC50,[24],7970 ± 1590 nM
same,IC50,[28],11600 ± 2130 nM
